Results: patent US20130164259A1, “1,4-S[…] DERIVATIVES AND METHODS OF USE THEREOF” (priority 2009, published 2013)

Molecular target: T1, HCV NS5B polymerase (NS5BΔCT21) (Hepatitis C virus genotype 1b, UniProt Q9WMX2)
T1 construct: A soluble C-terminal 21-amino acid truncated NS5B enzyme form; polyhistidine (C); made in house; host or cells: Escherichia coli
Assay: HCV NS5B Polymerase Inhibition Assay
Assay type: biochemical, HCV-Con 1 isolate
Text: A chemically synthesized 75-mer version, designated DCoH75, whose sequence matches the 3′-end of D-RNA, and DCoH75ddC, where the 3′-terminal cytidine of DCoH75 is replaced by dideoxycytidine, were used for assaying the NS5B enzyme activity as described in Ferrari et al., 12th International Symposium on HCV and Related Viruses, P-306 (2005). The sequence of the template RNA was: 5′-UGUGCCGGUCUUUCUGAACGGGAUAUAAACCUGGCCAGCUUCAUCGAACAAGUUGCCGUGUCUAUGACAUAGAUC-3′ (SEQ ID NO: 1). A soluble C-terminal 21-amino acid truncated NS5B enzyme form (NS5BΔCT21, from HCV-Con 1 isolate, genotype 1b, Genbank accession number AJ238799) was produced and purified from Escherichia coli as C-terminal polyhistidine-tagged fusion protein as described in Ferrari et al., J. Virol. 73:1649-1654 (1999). A typical assay contained 20 mM Hepes pH 7.3, 10 mM MgCl2, 60 mM NaCl, 100 μg/ml BSA, 20 units/ml RNasin, 7.5 mM DTT, 0.1 μM ATP/GTP/UTP, 0.026 μM CTP, 0.25 mM GAU, 0.03 μM RNA template, 20 μCi/ml [^33P]-CTP, 2% DMSO, and 30 or 150 nM NS5B enzyme. Reactions were incubated at 22° C. for 2 hours, then stopped by adding 150 mM EDTA, washed in DE81 filter plate in 0.5M di-basic sodium phosphate buffer, pH 7.0, and counted using Packard TopCount after the addition of scintillation cocktail. Polynucleotide synthesis was monitored by the incorporation of radiolabeled CTP. The effect of the Compounds of Formula (I) on the polymerase activity was evaluated by adding various concentrations of a Compound of Formula (I), typically in 10 serial 2-fold dilutions, to the assay mixture. The starting concentrations ranged from 200 μM to 1 μM. An IC50 value for the inhibitor, defined as the compound concentration that provides 50% inhibition of polymerase activity, was determined by fitting the cpm data to the Hill equation Y=100/(1+10̂((LogIC50−X)*HillSlope)), where X is the logarithm of compound concentration, and Y is the % inhibition. Ferrari et al., 12th International Symposium on HCV and Related Viruses, P-306 (2005) described in detail this assay procedure. It should be noted that such an assay as described is exemplary and not intended to limit the scope of the invention. The skilled practitioner can appreciate that modifications including but not limited to RNA template, primer, nucleotides, NS5B polymerase form, buffer composition, can be made to develop similar assays that yield the same result for the efficacy of the compounds and compositions described in the invention.
NS5B polymerase inhibition data was calculated for the compounds of the present invention using this method and is set forth in the table below.

SMILES | IC50
Cc1cnc(C(=O)Nc2ccc(C(C)C)cc2N2CCN(c3cnccn3)CC2)cn1 [Compound 36] | > 20 µM
Cc1nccc(N2CCN(c3cc(C(C)C)ccc3NC(=O)c3cccnc3)CC2)n1 [Compound 42] | 0.16 µM
CC(C)c1ccc(NC(=O)c2cccnc2N)c(N2CCN(c3cnccn3)CC2)c1 [Compound 8] | 1 µM
Cc1ncoc1C(=O)Nc1ccc(C(C)C)cc1N1CCN(c2cnccn2)CC1 [Compound 28] | 14 µM
CC(C)c1ccc(NC(=O)c2cnc3ccccc3c2)c(N2CCN(c3cnccn3)CC2)c1 [Compound 19] | 6.7 µM
Cc1cncc(N2CCN(c3cc(C(C)C)ccc3NC(=O)c3cccnc3)CC2)n1 [Compound 40] | 0.5 µM
CC(C)c1ccc(NC(=O)c2cccnc2)c(N2CCN(c3ccccn3)CC2)c1 [Compound 51] | 7.3 µM
O=C(Nc1ccc(I)cc1N1CCN(c2cnccn2)CC1)c1cccnc1 [Compound 70] | 13 µM
CC(C)c1ccc(NC(=O)c2cccnc2F)c(N2CCN(c3cnccn3)CC2)c1 [Compound 6] | 2.2 µM
Cc1n[nH]cc1C(=O)Nc1ccc(C(C)C)cc1N1CCN(c2cnccn2)CC1 [Compound 39] | > 200 µM
O=C(Nc1ccc(Br)cc1N1CCN(c2cnccn2)CC1)c1cccnc1 [Compound 65] | > 20 µM
COc1ncccc1C(=O)Nc1ccc(C(C)C)cc1N1CCN(c2cnccn2)CC1 [Compound 11] | > 20 µM
C=C(C)c1ccc(NC(=O)c2cccnc2)c(N2CCN(c3cnccn3)CC2)c1 [Compound 64] | 7 µM
CC(C)(C)c1ccc(NC(=O)c2cccnc2)c(N2CCN(c3cnccn3)CC2)c1 [Compound 63] | 3 µM
Cc1ccnc(N2CCN(c3cc(C(C)C)ccc3NC(=O)c3cccnc3)CC2)n1 [Compound 44] | 1.5 µM
Cc1ncccc1C(=O)Nc1ccc(C(C)C)cc1N1CCN(c2ncnc3[nH]ccc23)CC1 [Compound 60] | 0.032 µM
Cc1csc(N2CCN(c3cc(C(C)C)ccc3NC(=O)c3cccnc3)CC2)n1 [Compound 48] | 15 µM
Cc1ncsc1C(=O)Nc1ccc(C(C)C)cc1N1CCN(c2cnccn2)CC1 [Compound 20] | 0.58 µM
CC(C)c1ccc(NC(=O)c2cccnc2)c(N2CCN(C(=O)OC(C)(C)C)CC2)c1 [Compound 53] | > 200 µM
CC(C)c1ccc(NC(=O)c2cccnc2)c(N2CCN(S(C)(=O)=O)CC2)c1 [Compound 54] | > 200 µM
CC(C)c1ccc(NC(=O)c2cccnc2)c(N2CCN(C(=O)Nc3ccccc3)CC2)c1 [Compound 52] | > 100 µM
Cc1c(F)cccc1C(=O)Nc1ccc(C(C)C)cc1N1CCN(c2cnccn2)CC1 [Compound 13] | 4.1 µM
Cc1ncccc1C(=O)Nc1ccc(C(C)C)cc1N1CCN(c2cnccn2)CC1 [Compound 2] | 0.52 µM

SMILES | IC50
Cc1nocc1C(=O)Nc1ccc(C(C)C)cc1N1CCN(c2cnccn2)CC1 [Compound 38] | 13 µM
Cc1ccc(C(=O)Nc2ccc(C(C)C)cc2N2CCN(c3cnccn3)CC2)cn1 [Compound 17] | 14 µM
CC(C)c1ccc(NC(=O)c2cccnc2C(F)(F)F)c(N2CCN(c3cnccn3)CC2)c1 [Compound 7] | 2.3 µM
CC(C)c1ccc(NC(=O)C2CCCNC2)c(N2CCN(c3cnccn3)CC2)c1 (stereo not shown) [Compound 32] | > 200 µM
CC(C)c1ccc(NC(=O)c2ccc(C(F)(F)F)nc2)c(N2CCN(c3cnccn3)CC2)c1 [Compound 25] | 2.3 µM
Cc1ncccc1C(=O)Nc1ccc(C(C)C)cc1N1CCN(c2ccncn2)CC1 [Compound 57] | 0.1 µM
Cc1occc1C(=O)Nc1ccc(C(C)C)cc1N1CCN(c2cnccn2)CC1 [Compound 29] | 15 µM
CC(C)c1ccc(NC(=O)c2cccnc2)c(N2CCN(c3ncccn3)CC2)c1 [Compound 43] | 2.3 µM
CC(C)c1ccc(NC(=O)c2cccnc2)c(N2CCN(C(=O)CN(C)C)CC2)c1 [Compound 55] | > 200 µM
CCOC(=O)c1ccc(NC(=O)c2cccnc2)c(N2CCN(c3cnccn3)CC2)c1 [Compound 69] | > 5 µM
Cc1cncc(C(=O)Nc2ccc(C(C)C)cc2N2CCN(c3cnccn3)CC2)c1 [Compound 18] | 2.3 µM
Cc1c(F)cc(C(=O)Nc2ccc(C(C)C)cc2N2CCN(c3cnccn3)CC2)cc1F [Compound 16] | 5.6 µM
CC(C)c1ccc(NC(=O)c2cccc(F)c2)c(N2CCN(c3cnccn3)CC2)c1 [Compound 12] | 1 µM
CC(C)c1ccc(NC(=O)c2ccnc(NC(=O)C(C)(C)C)c2)c(N2CCN(c3cnccn3)CC2)c1 [Compound 37] | > 20 µM
Cc1ncccc1C(=O)Nc1ccc(C(C)C)cc1N1CCN(c2cncc(C3CC3)n2)CC1 [Compound 61] | 1 µM
CC(C)c1ccc(NC(=O)C2CCOCC2)c(N2CCN(c3cnccn3)CC2)c1 [Compound 31] | > 20 µM
CC(C)c1ccc(NC(=O)c2cccnc2C2CC2)c(N2CCN(c3cnccn3)CC2)c1 [Compound 3] | 2 µM
CC(C)c1ccc(NC(=O)c2cccnc2O)c(N2CCN(c3cnccn3)CC2)c1 [Compound 10] | 3 µM
Cc1nc(Br)sc1C(=O)Nc1ccc(C(C)C)cc1N1CCN(c2cnccn2)CC1 [Compound 21] | 3 µM
CC(C)c1ccc(NC(=O)c2cccc(O)n2)c(N2CCN(c3cnccn3)CC2)c1 [Compound 9] | 46 µM
Cc1cnc(C)c(N2CCN(c3cc(C(C)C)ccc3NC(=O)c3cccnc3)CC2)n1 [Compound 46] | 140 µM
Cc1cnc(N2CCN(c3cc(C(C)C)ccc3NC(=O)c3cccnc3)CC2)s1 [Compound 49] | 3.9 µM
CC(C)c1ccc(NC(=O)c2cccnc2)c(N2CCN(c3ccncn3)CC2)c1 [Compound 41] | 0.56 µM

SMILES | IC50
CC(C)c1ccc(NC(=O)c2ccnnc2)c(N2CCN(c3cnccn3)CC2)c1 [Compound 35] | > 20 µM
CC(C)c1ccc(NC(=O)c2cccnc2)c(N2CCN(c3cnccn3)CC2)c1 [Compound 1] | 3 µM
O=C(Nc1ccc(-c2ccccc2)cc1N1CCN(c2cnccn2)CC1)c1cccnc1 [Compound 67] | 8 µM
CNCC(=O)N1CCN(c2cc(C(C)C)ccc2NC(=O)c2cccnc2)CC1 [Compound 56] | > 200 µM
CC(C)c1ccc(NC(=O)c2cccnc2-c2ccccc2)c(N2CCN(c3cnccn3)CC2)c1 [Compound 5] | > 200 µM
O=C(Nc1ccc(C(F)(F)F)cc1N1CCN(c2cnccn2)CC1)c1cccnc1 [Compound 68] | > 20 µM
C=C(C)c1ncccc1C(=O)Nc1ccc(C(C)C)cc1N1CCN(c2cnccn2)CC1 [Compound 4] | > 200 µM
Cc1nccnc1N1CCN(c2cc(C(C)C)ccc2NC(=O)c2cccnc2)CC1 [Compound 45] | 3.9 µM
Cc1oncc1C(=O)Nc1ccc(C(C)C)cc1N1CCN(c2cnccn2)CC1 [Compound 27] | 13 µM
Cc1ncccc1C(=O)Nc1ccc(C(C)C)cc1N1CCN(c2ncnc3ccsc23)CC1 [Compound 59] | 0.014 µM
Cc1ncccc1C(=O)Nc1ccc(C(C)C)cc1N1CCN(c2cncc(-c3ccccc3)n2)CC1 [Compound 62] | 17 µM
CC(C)c1ccc(NC(=O)c2cnc3[nH]ccc3c2)c(N2CCN(c3cnccn3)CC2)c1 [Compound 24] | > 20 µM
CC(C)c1ccc(NC(=O)c2cncnc2)c(N2CCN(c3cnccn3)CC2)c1 [Compound 34] | > 20 µM
Cc1c(F)ccc(F)c1C(=O)Nc1ccc(C(C)C)cc1N1CCN(c2cnccn2)CC1 [Compound 15] | 54 µM
CC(C)c1ccc(NC(=O)c2cnccc2C(F)(F)F)c(N2CCN(c3cnccn3)CC2)c1 [Compound 26] | > 20 µM
Cc1nc(N(C)C)sc1C(=O)Nc1ccc(C(C)C)cc1N1CCN(c2cnccn2)CC1 [Compound 22] | 10 µM
CC(C)c1ccc(NC(=O)c2ccsc2)c(N2CCN(c3cnccn3)CC2)c1 [Compound 23] | 7 µM
CC(C)c1ccc(NC(=O)c2ccccn2)c(N2CCN(c3cnccn3)CC2)c1 [Compound 33] | > 20 µM
O=C(Nc1ccc(C2CC2)cc1N1CCN(c2cnccn2)CC1)c1cccnc1 [Compound 66] | 12 µM
Cc1c(F)cc(F)cc1C(=O)Nc1ccc(C(C)C)cc1N1CCN(c2cnccn2)CC1 [Compound 14] | 0.54 µM
CC(C)c1ccc(NC(=O)c2cccnc2)c(N2CCN(c3nccs3)CC2)c1 [Compound 47] | 2.5 µM
